Laboratory results as given in PubChem BioAssay AID256 (DTP/NCI, 2004).
Where “and” joins values, the source holds several entries; their conditions need not be identical. Identical values can stand only once. Inconclusive results and toxic doses are left out. How the source made its calls: active means survival T/C of 150% or more; inactive means T/C below 125% in these data.

System: CD2F1 mice, L1210 leukemia ip, survival T/C
Assay: NCI In Vivo Anticancer Drug Screen. Data for tumor model L1210 Leukemia (intraperitoneal) in CD2F1 (CDF1) mice
Conditions: higher = longer survival
How it was run: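 Ratio T/C, where T is the treated-group value and C the vehicle-dosed control value, from mice implanted with a transplantable tumor.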

[1] = endpoint: mean survival time, dose: 100.0 mg/kg/injection, schedule: Q01DX001 (ip), vehicle: saline with Tween-80
[2] = endpoint: mean survival time, dose: 200.0 mg/kg/injection, schedule: Q01DX001 (ip), vehicle: saline with Tween-80
[3] = endpoint: mean survival time, dose: 400.0 mg/kg/injection, schedule: Q01DX001 (ip), vehicle: saline with Tween-80
[4] = endpoint: mean survival time, dose: 100.0 mg/kg/injection, schedule: Q04DX003 (ip), vehicle: saline with Tween-80
[5] = endpoint: mean survival time, dose: 200.0 mg/kg/injection, schedule: Q04DX003 (ip), vehicle: saline with Tween-80
[6] = endpoint: mean survival time, dose: 50.0 mg/kg/injection, schedule: Q01DX009 (ip), vehicle: saline with Tween-80
[7] = endpoint: mean survival time, dose: 100.0 mg/kg/injection, schedule: Q01DX009 (ip), vehicle: saline with Tween-80
[8] = endpoint: mean survival time, dose: 6.25 mg/kg/injection, schedule: Q01DX009 (ip), vehicle: saline with Tween-80
[9] = endpoint: mean survival time, dose: 12.5 mg/kg/injection, schedule: Q01DX009 (ip), vehicle: saline with Tween-80
[10] = endpoint: mean survival time, dose: 200.0 mg/kg/injection, schedule: Q01DX009 (ip), vehicle: saline with Tween-80
[11] = endpoint: mean survival time, dose: 400.0 mg/kg/injection, schedule: Q01DX009 (ip), vehicle: saline with Tween-80
[12] = endpoint: mean survival time, dose: 400.0 mg/kg/injection, schedule: Q04DX003 (ip), vehicle: saline with Tween-80
[13] = endpoint: mean survival time, dose: 25.0 mg/kg/injection, schedule: Q01DX009 (ip), vehicle: saline with Tween-80
[14] = endpoint: mean survival time, dose: 25.0 mg/kg/injection, schedule: Q01DX009 (ip), vehicle: Klucel (hydroxypropylcellulose) (HPC)
[15] = endpoint: mean survival time, dose: 50.0 mg/kg/injection, schedule: Q01DX009 (ip), vehicle: Klucel (hydroxypropylcellulose) (HPC)
[16] = endpoint: mean survival time, dose: 100.0 mg/kg/injection, schedule: Q01DX009 (ip), vehicle: Klucel (hydroxypropylcellulose) (HPC)
[17] = endpoint: mean survival time, dose: 200.0 mg/kg/injection, schedule: Q01DX009 (ip), vehicle: Klucel (hydroxypropylcellulose) (HPC)

Measured: T/C

COc1ccc(C(=O)c2ncccc2C(=O)O)cc1OC
inactive: endpoint: mean survival time, dose: 12.5 mg/kg/injection, schedule: Q01DX009 (ip), vehicle: other 98 % of control | endpoint: mean survival time, dose: 25.0 mg/kg/injection, schedule: Q01DX009 (ip), vehicle: other 104 % of control | endpoint: mean survival time, dose: 50.0 mg/kg/injection, schedule: Q01DX009 (ip), vehicle: other 104 % of control | endpoint: mean survival time, dose: 100.0 mg/kg/injection, schedule: Q01DX009 (ip), vehicle: other 104 % of control | endpoint: mean survival time, dose: 200.0 mg/kg/injection, schedule: Q01DX009 (ip), vehicle: other 105 % of control

CCCCCCCCCCCCCCSc1ccc(Br)cc1
inactive: [1] 110 % of control | [2] 101 % of control | [3] 93 % of control

COC(=O)Nc1cc2c3c(c1)CCCN3CCC2
inactive: [4] 104 % of control | [5] 93 % of control

CCCC(C)C/C(C)=C/C(C)(C)C(CC(=O)N1CCOCC1)C(=O)O (configuration not stated)
inactive: [6] 95 % of control | [7] 93 % of control | [4] 100 % of control | [5] 98 % of control

COc1cc2c3cc1Oc1c(OC)c(OC)cc4c1C(Cc1ccc(O)c(c1)Oc1ccc(cc1)CC3N(C)CC2)CN(C)C4 (configuration not stated)
inactive: [4] 101 % of control | [5] 93 % of control

Cc1cc(NCCN(C(C)C)C(C)C)nc(Nc2nc3ccc(Cl)cc3[nH]2)n1
inactive: endpoint: mean survival time, dose: 0.75 mg/kg/injection, schedule: Q01DX009 (ip), vehicle: saline with Tween-80 103 % of control | endpoint: mean survival time, dose: 1.5 mg/kg/injection, schedule: Q01DX009 (ip), vehicle: saline with Tween-80 90 % of control | endpoint: mean survival time, dose: 3.0 mg/kg/injection, schedule: Q01DX009 (ip), vehicle: saline with Tween-80 106 % of control | [8] 92 % of control | [9] 92 % of control | [1] 96 % of control | [2] 96 % of control | [3] 98 % of control

CCCCCCCCCCCCCCCCOc1ccccc1CNc1cc(Cl)ccc1Cl
inactive: [7] 102 % of control | [4] 95 % of control | [10] 96 % of control | [5] 95 % of control | [11] 93 % of control | [12] 89 % of control

C#CC1(c2ccccc2)OCCO1
inactive: [9] 97 % of control | [13] 97 % of control | [6] 94 % of control

NC(=S)NN=C1CCCCC1
inactive: [8] 98 % of control | [9] 96 % of control | [13] 98 % of control

CC(=O)ON1C(=O)C=CC1=O
inactive: [14] 95 % of control | [15] 90 % of control

COC(=O)C(CC(C)C)NC(=O)c1ccccc1 (configuration not stated)
inactive: [4] 98 % of control | [5] 97 % of control | [12] 95 % of control

COc1cc2c(cc1O)CCCC=C2
inactive: [6] 100 % of control | [7] 96 % of control | [10] 92 % of control

CC1(C)CCC2(C(=O)O)CCC3(C)C(=CCC4C5(C)CC(O)C(OC6OC(CO)C(O)C(O)C6O)C(C)(CO)C5C(O)CC43C)C2C1 (configuration not stated)
inactive: endpoint: mean survival time, dose: 50.0 mg/kg/injection, schedule: Q04DX002 (ip), vehicle: saline with Tween-80 102 % of control

O=C1CC2c3[nH]c4ccccc4c3CCN2C2=C1CCCC2 (configuration not stated)
inactive: [4] 100 % of control | [5] 103 % of control

CCS(=O)(=O)CCNCCS(=O)(=O)CC
inactive: endpoint: mean survival time, dose: 100.0 mg/kg/injection, schedule: Q04DX002 (ip), vehicle: saline with Tween-80 104 % of control | endpoint: mean survival time, dose: 200.0 mg/kg/injection, schedule: Q04DX002 (ip), vehicle: saline with Tween-80 93 % of control | endpoint: mean survival time, dose: 400.0 mg/kg/injection, schedule: Q04DX002 (ip), vehicle: saline with Tween-80 104 % of control

N/N=C1/C(=O)c2cccc3cccc1c23
inactive: [4] 100 % of control | [5] 102 % of control | [12] 92 % of control

CC1CCC2NCCCC2C1 (configuration not stated)
inactive: endpoint: mean survival time, dose: 5.0 mg/kg/injection, schedule: Q04DX002 (ip), vehicle: saline 98 % of control | endpoint: mean survival time, dose: 10.0 mg/kg/injection, schedule: Q04DX002 (ip), vehicle: saline 95 % of control | endpoint: mean survival time, dose: 20.0 mg/kg/injection, schedule: Q04DX002 (ip), vehicle: saline 98 % of control

Cc1cccc(CCF)c1
inactive: [1] 110 % of control | [2] 107 % of control | [3] 98 % of control

CCOC(=O)C(C)(C)Oc1ccc(Cl)cc1
inactive: [9] 100 % of control and 105 % of control | [13] 97 % of control and 98 % of control | [6] 103 % of control and 104 % of control | [1] 94 % of control | [7] 100 % of control and 101 % of control and 103 % of control | [2] 91 % of control | [10] 100 % of control and 101 % of control and 102 % of control | [3] 94 % of control | [11] 100 % of control and 104 % of control and 109 % of control

CCCCCC(=O)O[C@]1(C(C)=O)CC[C@H]2[C@@H]3CCC4=CC(=O)CC[C@]4(C)[C@H]3CC[C@@]21C
inactive: endpoint: median survival time, dose: 25.0 mg/kg/injection, schedule: Q01DX009 (ip), vehicle: saline with Tween-80 109 % of control | endpoint: median survival time, dose: 50.0 mg/kg/injection, schedule: Q01DX009 (ip), vehicle: saline with Tween-80 96 % of control | endpoint: median survival time, dose: 100.0 mg/kg/injection, schedule: Q01DX009 (ip), vehicle: saline with Tween-80 97 % of control | endpoint: median survival time, dose: 200.0 mg/kg/injection, schedule: Q01DX009 (ip), vehicle: saline with Tween-80 95 % of control | endpoint: median survival time, dose: 400.0 mg/kg/injection, schedule: Q01DX009 (ip), vehicle: saline with Tween-80 93 % of control

[N-]=[N+]=Nc1ccccc1C(=O)NCc1cnc(N)nc1N
inactive: [4] 95 % of control | [5] 95 % of control

NC(=O)N/N=C/c1ccc([N+](=O)[O-])s1
inactive: [4] 97 % of control | [5] 99 % of control | [12] 106 % of control

O=C1c2ccccc2C(=O)N1CCCCCBr
inactive: [7] 96 % of control | [4] 103 % of control | [10] 96 % of control | [5] 91 % of control | [11] 94 % of control | [12] 100 % of control

CC(=O)Nc1ccccc1[N+](=O)[O-]
inactive: [1] 103 % of control | [2] 101 % of control | [3] 103 % of control

CCOC(=O)NC(C)(C)CN(C(=O)OCC)C(C)(C)CO
inactive: endpoint: mean survival time, dose: 50.0 mg/kg/injection, schedule: Q01DX009 (ip), vehicle: saline 102 % of control | endpoint: mean survival time, dose: 100.0 mg/kg/injection, schedule: Q01DX009 (ip), vehicle: saline 98 % of control

CCCc1nc2[nH]c(N)nc(=S)c2[nH]1
inactive: endpoint: mean survival time, dose: 12.5 mg/kg/injection, schedule: Q01DX005 (ip), vehicle: other 100 % of control | endpoint: mean survival time, dose: 25.0 mg/kg/injection, schedule: Q01DX005 (ip), vehicle: other 108 % of control

COc1ccc(Nc2ncnc3c2ncn3C2OC(CO)C(O)C2O)cc1 (configuration not stated)
inactive: endpoint: mean survival time, dose: 6.25 mg/kg/injection, schedule: Q01DX005 (ip), vehicle: distilled water + Tween-80 101 % of control | endpoint: mean survival time, dose: 12.5 mg/kg/injection, schedule: Q01DX005 (ip), vehicle: distilled water + Tween-80 102 % of control and 96 % of control | endpoint: mean survival time, dose: 25.0 mg/kg/injection, schedule: Q01DX005 (ip), vehicle: distilled water + Tween-80 104 % of control and 96 % of control | endpoint: mean survival time, dose: 50.0 mg/kg/injection, schedule: Q01DX005 (ip), vehicle: distilled water + Tween-80 91 % of control | endpoint: mean survival time, dose: 100.0 mg/kg/injection, schedule: Q01DX005 (ip), vehicle: distilled water + Tween-80 102 % of control | endpoint: mean survival time, dose: 200.0 mg/kg/injection, schedule: Q01DX005 (ip), vehicle: distilled water + Tween-80 100 % of control

Cc1ccc(S(=O)(=O)OCCOCCOCCOS(=O)(=O)c2ccc(C)cc2)cc1
inactive: [4] 101 % of control | [5] 101 % of control | [12] 101 % of control

Cc1ccc(S(=O)(=O)N/N=C/c2ccncc2)cc1
inactive: [14] 104 % of control | [15] 105 % of control | [16] 98 % of control | [17] 98 % of control

CC1=C(CNc2ncnc3nc[nH]c23)CC=CC1
inactive: [7] 88 % of control | [4] 95 % of control | [10] 92 % of control | [11] 88 % of control | [12] 98 % of control

Oc1c(Br)cc(Br)c(O)c1Br
inactive: [4] 97 % of control | [5] 95 % of control

CC(C)(C)CC(C)(C)c1ccc(OCCOc2ccccc2NC(=O)CC(=O)c2cccc([N+](=O)[O-])c2)cc1
inactive: [16] 98 % of control | [4] 97 % of control | [17] 93 % of control | [5] 101 % of control | endpoint: mean survival time, dose: 400.0 mg/kg/injection, schedule: Q01DX009 (ip), vehicle: Klucel (hydroxypropylcellulose) (HPC) 90 % of control | [12] 92 % of control

CSc1n[nH]c(N=[N+]=[N-])c1C(N)=O
inactive: [4] 96 % of control | [5] 93 % of control | [12] 101 % of control

CCOc1ccc(-n2c(O)c(N=Nc3ccccc3OC)c(=O)n(-c3ccccc3)c2=S)cc1
inactive: [1] 93 % of control | [2] 91 % of control
